Data set [1] deals with U-87 MG. As to the kind of experiment: MTT cytotoxicity assay, glioblastoma. Format: cell-based, human. The following applies: Homo sapiens, U-87 MG, 72 h, read-out: IC50 ± SEM, U-87 MG. The protocol: (§1) The cytotoxicity study of the quinolinones 2–3 was evaluated in vitro by MTT assay on immortalized humane fibroblasts (hTERT), humane breast cancer cell line (MCF7) and humane glioblastoma cell line (U-87MG and) versus doxorubicin as a reference compound.
(§2) Cell lines were obtained from the American Type Culture Collection: U-87 MG (ATCC number HBT-14), MCF7 (ATCC number HTB-22), A549 (ATCC number CRM-CCL), HeLa (ATCC number CCL-2). Immortalized human fibroblasts hTERT (as noncancerous control) were obtained from ICG SB RAS (Novosibirsk, Russia). DMEM with 10% fetal bovine serum (Gibco, Amarillo, TX, USA) was used for culturing. Optical density was measured on a Multiskan RC spectrophotometer (LabSystems, Vantaa, Finland). The MTT test was carried out according to the standard procedure using the reagent 3-(4,5-dimethylthiazol-2-yl)-2,5-diphen-yltetrazolium bromide (MTT, Sigma). Cells were seeded in 96 well plates at 5000 cells/well and incubated for 24 h at 37 C in 5% CO2. After 24 h, various concentrations of test compounds ([…]) in DMSO were added and the cells were incubated for an additional 72 h. The viability for DMSO (negative control) was calculated as 100%. All culture experiments were carried out independently three times with two repeats in the experiment, and the final result is presented as concentration, which causes 50% inhibition of cell population growth (IC50 ± SEM).
(In general: Tetrazolium dyes change colour on reduction, which living cells bring about.)

For data set [2], the system named is Concanavalin A-Induced Inflammation. Put plainly: Concanavalin A-induced mouse paw edema model. The class given is in vivo, C57BL/6 female mice. The following applies: for anti-inflammatory effect (in words): 20 mg/kg i.p.; for inhibition in vivo at 20 mg/kg: Mus musculus, ip, anti-inflammatory activity relative to control group, read-out: Concanavalin A-Induced Inflammation AIA, %; for inhibition in vivo at 20 mg/kg / Concanavalin A-Induced Inflammation IEI, %: 20 mg/kg i.p. twice; for Concanavalin A-Induced Inflammation IEI, %: inflammatory edema index, 24 h and 1 h before phlogogen, mean ± SEM; for activity higher than that of indomethacin (reference drug): 20 mg/kg double i.p. administration. The source says:
(§3) The anti-inflammatory activity of the synthesized compounds was investigated in vivo in comparison with indomethacin on two models of local inflammation induced by histamine or concanavalin A injection. The last one was used as the inductor of allergic-like inflammation, owing to its immunogenic activity. The results were expressed as values of inflammatory edema indexes (IEI) and percentages of anti-inflammatory activity (AIA) relative to the control group (Table 1).
(§4) The pharmacological studies were carried out on outbred albino male mice and C57BL/6 female mice weighing 20–25 g with eight animals in each group. The anti-inflammatory activity of compounds 2–3 was evaluated in the histamine-induced and concanavalin A-induced mouse paw edema models. The test compounds were dissolved in saline containing 0.5% Tween 80 just before intraperitoneal administration at the dose of 20 mg/kg. The reference agent indomethacin (‘Fluka BioChemica’) was administered by the same method and dose. The control group of animals received an equivalent volume of water–Tween mixture.
The 8 female mice C57Bl/6 were subplantar injected into the hind paw with 0.02 mL 0.5% concanavaline A (“Sigma Aldrich”) aqueous solution. The test compounds were administered twice 24 h and 1 h before phlogogen. The animals were sacrificed by cervical dislocation 1 h after the phlogogen injection.
(§5) Both hind paws were cut off at the ankle joint and weighed. The ratio of the difference in weight between the treated and untreated hind paws to the weight of the untreated hind paw was used as an inflammatory edema index (IEI). The relative percentage of IEI versus control IEI (100%) was calculated for each test group. The anti-inflammatory activity (AIA) was presented as a difference between 100% in the control group and relative percentage of IEI in the test group.

In data set [3] the test system is Histamine-Induced Inflammation. Put plainly: Histamine-induced mouse paw edema model. The class given is in vivo, outbred albino male mice. The following applies: for anti-inflammatory effect (in words) / inhibition in vivo at 20 mg/kg: 20 mg/kg i.p.; for inhibition in vivo at 20 mg/kg: Mus musculus, ip, anti-inflammatory activity relative to control group, read-out: Histamine-Induced Inflammation AIA, %; for Histamine-Induced Inflammation IEI, %: inflammatory edema index, 20 mg/kg i.p. 1 h before histamine, mean ± SEM.
From the text: as §3, §4
The 8 outbred male albino mice were subplantar injected into the hind paw with 0.05 mL 0.01% histamine (“Sigma Aldrich”, Saint Louis, MO, USA) in water solution. The tested compounds were administered 1 h before the histamine injection. The animals were sacrificed by cervical dislocation 5 h after the phlogogen injection.
as §5

For data set [4], the system named is A549. As to the kind of experiment: MTT cytotoxicity assay, A549. Format: cell-based. As to conditions: Homo sapiens, 72 h, read-out: IC50 ± SEM, A549. How it is done:
as §2

The test system of data set [5] is hTERT. Put plainly: MTT cytotoxicity assay, immortalized fibroblasts. Format: cell-based, human. As to conditions: for IC50: Homo sapiens, Fibroblast, 72 h, read-out: IC50 ± SEM, hTERT. The protocol: as §1, §2
Data set [6] has as its system MCF7. As to the kind of experiment: MTT cytotoxicity assay, breast cancer. The class given is cell-based, human. As to conditions: Homo sapiens, MCF7, 72 h, read-out: IC50 ± SEM, MCF7. How it is done:
as §1, §2

The subject of data set [7] is HeLa. Put plainly: MTT cytotoxicity assay, cervical cancer. The class given is cell-based. The following applies: HeLa; for IC50: Homo sapiens, 72 h, MTT, read-out: IC50 ± SEM, HeLa. How it is done: as §2

For orientation: IC50 means the midpoint of a concentration-inhibition curve. As a reminder, the melting point is the temperature, or range, at which the solid turns liquid.

The structures appear in SMILES notation. Where “and” joins values, the source holds several entries; their conditions need not be identical. Equal entries are not always repeated.

For the compound `CC(=O)c1ccc(C(=O)c2c(-c3ccccc3)nc3c4c(cccc24)C(=O)c2ccccc2-3)cc1` [2b, 2-benzo-3-(p-acetylbenzoyl)-7H-dibenzo[de,h]quinolin-7-one], the melting point is 312 to 313 °C. In addition, in data set [1], the IC50 is greater than 100 µM. Moreover, in data set [2], the “anti-inflammatory effect (in words)” value is on record as “most potent effects”; the inhibition in vivo at 20 mg/kg was found to be 43%; the “Concanavalin A-Induced Inflammation IEI, %” value stood at 21.4 ± 1.6 %. For the same compound, in data set [3], the “anti-inflammatory effect (in words)” value is “most potent effects”; the inhibition in vivo at 20 mg/kg worked out at 33%; the “Histamine-Induced Inflammation IEI, %” value is recorded as 23.0 ± 1.9 %. In data set [4], the IC50 was greater than 100 µM. The IC50 in data set [5] is greater than 100 µM. In data set [6], the IC50 was greater than 100 µM. Moreover, the IC50 in data set [7] was greater than 100 µM.

Turning to `COc1ccc(C(=O)c2c(-c3ccccc3)nc3c4c(cccc24)C(=O)c2ccccc2-3)cc1` [2d, 2-benzo-3-(p-methoxybenzoyl)-7H-dibenzo[de,h]quinolin-7-one], the melting point is 279 to 280 °C. Moreover, in data set [1], the IC50 was greater than 100 µM. Further, in data set [2], the “anti-inflammatory effect (in words)” value is “most potent effects”; the inhibition in vivo at 20 mg/kg is 26%; the “Concanavalin A-Induced Inflammation IEI, %” value is given as 27.9 ± 1.2 %. In addition, in data set [3], the “anti-inflammatory effect (in words)” value is on record as “most potent effects”; the inhibition in vivo at 20 mg/kg is 34%; the “Histamine-Induced Inflammation IEI, %” value was 22.7 ± 2.3 %. The IC50 in data set [4] is greater than 100 µM. Also, in data set [5], the IC50 was greater than 100 µM. Besides, the IC50 in data set [6] is greater than 100 µM. Also, the IC50 in data set [7] is greater than 100 µM.

The compound `O=C1c2ccccc2-c2nc(-c3ccccc3)cc3cccc1c23` [3a, 2-phenyl-7H-dibenzo[de,h]quinolin-7-one] came in with a melting point of 207 to 208 °C. The IC50 in data set [1] is greater than 100 µM. In addition, in data set [2], the “activity higher than that of indomethacin (reference drug)” value is listed as 1.3–1.4 times; the inhibition in vivo at 20 mg/kg was found to be 53%; the “Concanavalin A-Induced Inflammation IEI, %” value came to 17.8 ± 1.8 %. In data set [3], the “anti-inflammatory effect (in words)” value is listed as “most potent effect”; the inhibition in vivo at 20 mg/kg was 60%; the “Histamine-Induced Inflammation IEI, %” value is 13.9 ± 0.8 %. For the same compound, the IC50 in data set [4] was greater than 100 µM. In data set [5], the “cytotoxic effect on immortal fibroblasts (in words)” value is reported as “did not have a cytotoxic effect” and the concentration for half-maximal inhibition (IC50) is greater than 100 µM. Also, in data set [6], the IC50 is greater than 100 µM. Also, in data set [7] (ratio of IC50), the “cytotoxicity lower than doxorubicin” value was found to be 14 times. The half-inhibitory concentration (IC50) in data set [7] was 86.3 ± 12.9 µM.

In turn, `CC(=O)c1ccc(-c2cc3cccc4c3c(n2)-c2ccccc2C4=O)cc1` [3b, 2-(p-acetylphenyl)-7H-dibenzo[de,h]quinolin-7one] came in with a melting point of 324 to 325 °C. The IC50 in data set [1] is greater than 100 µM. In data set [2], the “anti-inflammatory effect (in words)” value is “most potent effects”; the inhibition in vivo at 20 mg/kg came to 52%; the “Concanavalin A-Induced Inflammation IEI, %” value is listed as 18.0 ± 2.0 %. In data set [3], the “anti-inflammatory effect (in words)” value is reported as “most potent effects”; the inhibition in vivo at 20 mg/kg was 36%; the “Histamine-Induced Inflammation IEI, %” value is 22.1 ± 1.8 %. Further, the IC50 in data set [4] was greater than 100 µM. Moreover, in data set [5], the IC50 is greater than 100 µM. The IC50 in data set [6] was greater than 100 µM. In addition, the IC50 in data set [7] is greater than 100 µM.

Consider `COc1ccc(-c2cc3cccc4c3c(n2)-c2ccccc2C4=O)cc1` [3d, 2-(p-methoxyphenyl)-7H-dibenzo[de,h]quinolin-7-one], for which the melting point lay in the range of 203 to 204 °C. Moreover, in data set [1], the IC50 is greater than 100 µM. Also, in data set [2], the “activity higher than that of indomethacin (reference drug)” value is 1.5 times and 1.3–1.4 times; the inhibition in vivo at 20 mg/kg is 60%; the “Concanavalin A-Induced Inflammation IEI, %” value came to 15.2 ± 1.6 %. Moreover, in data set [3], the inhibition in vivo at 20 mg/kg worked out at 42% and the “Histamine-Induced Inflammation IEI, %” value stood at 19.9 ± 2.6 %. The IC50 in data set [4] was greater than 100 µM. In addition, the IC50 in data set [5] was greater than 100 µM. Besides, the IC50 in data set [6] was greater than 100 µM. In data set [7], the IC50 is greater than 100 µM.

Values taken from paper PMC8621605, “Cascade Transformations of 1-R-Ethynyl-9,10-anthraquinones with Amidines: Expanding Access to Isoaporphinoid Alkaloids” (Molecules, 2021).
